Assay results from PMC4297530 (Biological psychiatry, 2014).

What was measured:
[1] = test system: plasma corticosterone (HPA axis); assay: Combined DEX/CRF test, plasma corticosterone; assay type: in vivo, mouse
[2] = test system: GR translocation in RN46A-B14 cells; assay: DEX-induced GR-GFP translocation, high-content imaging; assay type: cell-based, rat; conditions: 2.5 μM for 1 hour, then 1 μM DEX 30 min, p<0.05 vs. vehicle
[3] = test system: Hsp90 / α-tubulin acetylation and Hsp90-FKBP51/52 association; assay: Co-immunoprecipitation and acetylation blots in RN46 serotonin cell line; assay type: cell-based, rat; conditions: 2.5 uM, RN46 cells, vs vehicle
[4] = test system: histone acetylation in brain; conditions: at the dose used in present study (5 mg/kg i.p.); cited from earlier work

| Structure (SMILES) | percent change in plasma corticosterone, resilient mice ([1]; 6 hours after DEX 0.05 mg/kg, CSDS resilient mice) [%] | percent change in plasma corticosterone, control mice ([1]; 6 hours after DEX 0.05 mg/kg, undefeated control mice) [%] | GR translocation induced by dexamethasone [2] | CORT response following DEX/CRF challenge ([1]; chronic ACY-738 treatment, data not shown) | association of Hsp90 with FKBP51 ([3]; co-IP) | interaction of Hsp90 with FKBP52 ([3]; co-IP) | acetylation of α-tubulin ([3]; input samples) | acetylation of Hsp90 at lysine 294 [3] | histone acetylation in brain [4] |
| --- | --- | --- | --- | --- | --- | --- | --- | --- | --- |
| C[C@@H]1C[C@H]2[C@@H]3CCC4=CC(=O)C=C[C@]4(C)[C@@]3(F)[C@@H](O)C[C@]2(C)[C@@]1(O)C(=O)CO [dexamethasone] | −34 | −13 | – | – | – | – | – | – | – |
| CN1CCc2c(c3ccccc3n2Cc2ccc(C(=O)NO)cc2)C1 [Tubastatin A] | – | – | significantly reduced | – | – | – | – | – | – |
| O=C(NO)c1cnc(NC2(c3ccccc3)CC2)nc1 [ACY-738] | – | – | significantly reduced | did not alter | increased association | reduced interaction | increase | increased acetylation | does not elevate |
